Measured values taken from US20050080260A1, “Preparation of prodrugs for selective drug delivery” (priority 2003, published 2005).
Where two headings read alike, the source gives them in different places. Marks after values point to notes of the source that are not given here.

Key:
Ba-L strain of HIV-1 = experiment: Anti-HIV-1 potency in macrophage assay (p24 ELISA); format: cell-based, HIV-1 in human monocyte/macrophages; details: for IC50: Human immunodeficiency virus 1, BAL, Macrophage
Procedure: (§1) Evaluation of Prodrug Anti-HIV-1 Potency in Macrophage Assay. The anti HIV-1 evaluation of the carriers and their conjugates was performed in 6-day old monocyte/macrophages at Southern Research Institute, Frederick, Md. Briefly, peripheral blood monocytes were isolated from normal HIV-1 negative donors by plastic adherence following ficoll hypaque purification of the buffy coats. The monocytes were then cultured for 6 days to a macrophage-like phenotype. The test compounds were serially diluted and added to the cultures followed by the addition of a pretitered amount of the Ba-L strain of HIV-1 obtained from the NIAID AIDS Research and Reference Reagent Repository. Cultures were washed by media removal 24 hours post infection, fresh compound added and the cultures continued for an additional 6 days. HIV p24 antigen content to assess virus replication was measured by p24 ELISA assay. AZT and ddc were used as positive control compounds and run in parallel with each determination. […] At assay termination, the assay plates were stained with the tetrazolium based dye MTS to determine cell viability and quantify compound toxicity. Using a computer program at Southern Research Institute, IC50 (50% inhibition of virus replication), TC50 (50% cytotoxicity) and a therapeutic index (TI, […]) were obtained.

[1] = Toxicity on replicate uninfected macrophage plates (MTS cell viability); format: cell-based, human; details: human, uninfected macrophages, MTS, read-out: TC50 (50% cytotoxicity)
Procedure: as §1

monocyte/macrophages = experiment: as above; format: cell-based, human; details: Southern Research Institute tests, TABLES 7-9
Procedure: as §1

[2] = tested on: Friends Leukemia Virus (FLV); experiment: Anti-retroviral potency in a murine model (FLV-infected mice, spleen and body weight); format: in vivo, Swiss mice; details: for Average Final Weight / Average Weight Change / Average Spleen Weight: FLV-infected four-week old Swiss mice, 300 nanomoles on days 5-9, sacrificed day 12; for Average Spleen Weight: p < 0.01 for MTLJ-1-Foscarnet; for weight gain: FLV-infected mice, treated group
Procedure: (§2) Evaluation Foscarnet Prodrug Anti-Retroviral Potency in a Murine Model. The effect of prodrug MTLJ-1-Foscarnet on four-week old Swiss mice infected with Friends Leukemia Virus (FLV) was tested by the Luminide Pharmaceutical Corporation. The mice were infected with FLV by an IP injection with 0.5 ml viral solution prepared by resuspending F4-6 cells (1×10^6 cells/ml) in fresh media and harvesting that media 24 hr later and filtering through a […] filter. The Foscarnet Group received 300 nanomoles of Foscarnet on days 5-9. The Carrier Group received 300 nanomoles of carrier on days 5-9. The MTLJ-1-Foscarnet Group received 300 nanomoles of MTLJ-1-Foscarnet on days 5-9. All mice were sacrificed on day 12. The spleens were removed and weighed. The toxicity of the carrier MTLJ-1 was also evaluated by the determination of its LD50.

[3] = Acute toxicity, determination of LD50; format: in vivo
Procedure: as §2

[4] = TABLE 8 (6a carrier and ddc prodrug, Southern Research Institute), HIV-1 Ba-L, human macrophages, p24 antigen, read-out: IC50 (50% inhibition of virus replication)
[5] = TABLE 9 (6a carrier and Foscarnet prodrug, Southern Research Institute), HIV-1 Ba-L, human macrophages, p24 antigen, read-out: IC50 (50% inhibition of virus replication)
[6] = TABLE 10, Southern Research Institute under NIH contract, HIV-1 in human macrophages, read-out: IC50
[7] = TABLE 9 (6a carrier and Foscarnet prodrug)
[8] = TABLE 10, Southern Research Institute under NIH contract
[9] = TABLE 7 (negative control carrier test, Southern Research Institute), HIV-1 Ba-L, human macrophages, p24 antigen, read-out: IC50 (50% inhibition of virus replication)
[10] = TABLE 7 (negative control carrier test)

## CCN(c1ccc(/C(=C/C=C/C(=C2C=CC(=[N+](CC)c3ccc4c(=O)[nH][nH]c(=O)c4c3)C=C2)c2ccc(N(C)C)cc2)c2ccc(N(C)C)cc2)cc1)c1ccc2c(=O)[nH][nH]c(=O)c2c1 [6a]
Ba-L strain of HIV-1; [4]
  IC50: > 100 µM
Ba-L strain of HIV-1; [5]
  IC50: 23.1 µM
Ba-L strain of HIV-1; [6]
  IC50: 2.62 µM
Ba-L strain of HIV-1; [7]
  TI (TC50/IC50): >4.48
Ba-L strain of HIV-1; [8]
  TI (TC50/IC50): >38.2
[1]; TABLE 8 (6a carrier and ddc prodrug)
  CC50 at 7 days: > 100 µM
[1]; [7]
  CC50 at 7 days: > 104 µM
monocyte/macrophages
  Toxicity in macrophage assay (in words): nontoxic

## O=C([O-])P(=O)([O-])[O-].[Na+].[Na+].[Na+] [Foscarnet, phosphonoformate, reference compound]
Ba-L strain of HIV-1; [9]
  IC50: 0.55 µM
Ba-L strain of HIV-1; [5]
  IC50: 1.83 µM
Ba-L strain of HIV-1; [10]
  TI (TC50/IC50): >18
Ba-L strain of HIV-1; [7]
  TI (TC50/IC50): >182.08
[1]; [10]
  CC50 at 7 days: > 10 µM
[1]; [7]
  CC50 at 7 days: > 333 µM
[2]
  Average Final Weight: 18.9 g
  Average Weight Change: +1.5 g
  Average Spleen Weight: 0.1727 g
  weight gain: 1.5 grams

## CCN(c1ccc(/C(=C/C=C/C(=C2C=CC(=[N+](CC)c3ccc4c(=O)[nH][nH]c(=O)c4c3)C=C2)c2ccccc2)c2ccccc2)cc1)c1ccc2c(=O)[nH][nH]c(=O)c2c1 [GZW1-98-2]
Ba-L strain of HIV-1; [6]
  IC50: 23.1 µM
Ba-L strain of HIV-1; [8]
  TI (TC50/IC50): >4.3

## CCN(c1ccc(/C(=C/C=C/C=C2C=CC(=[N+](C)C)C=C2)c2ccc(N(C)C)cc2)cc1)c1ccc2c(=O)[nH][nH]c(=O)c2c1 [GZW2-33-1]
Ba-L strain of HIV-1; [6]
  IC50: 18.9 µM
Ba-L strain of HIV-1; [8]
  TI (TC50/IC50): >5.3

## CCCC(NCCN(CC)c1ccc(/C(=C/C=C/C(OP(=O)(O)C(=O)O)(c2ccc(N(C)C)cc2)c2ccc(N(CC)CCNC(CCC)N(CC)c3ccc4c(=O)[nH][nH]c(=O)c4c3)cc2)c2ccc(N(C)C)cc2)cc1)N(CC)c1ccc2c(=O)[nH][nH]c(=O)c2c1 (stereo not drawn) [MTLJ-1-Foscarnet]
[2]; FLV-infected Swiss mice
  Spleen weights compared with control groups (in words): the same as those of the No Virus, No Treatment Group
[2]; FLV-infected Swiss mice, significance level of 0.01, Students T test
  Suppression of FLV infection in mice (in words): highly effective
[2]
  Average Final Weight: 22.4 g
  Average Weight Change: +2.5 g
  Average Spleen Weight: 0.0914^a g
  weight gain: 2.5 grams
[3]; from LD50 and weight gain
  Toxicity in vivo (in words): nontoxic
[3]; mouse, in vivo, ip
  LD50: > 1250 mg/kg

## CCCCc1ccc(C(/C=C/C=C(\c2ccc(CCCC)cc2)c2ccc(OCCN(CC)c3ccc4c(=O)[nH][nH]c(=O)c4c3)cc2)=C2C=CC(=[O+]CCN(CC)c3ccc4c(=O)[nH][nH]c(=O)c4c3)C=C2)cc1 [YY99811-1]
Ba-L strain of HIV-1; [9]
  IC50: > 10 µM
[1]; [10]
  CC50 at 7 days: > 10 µM
monocyte/macrophages
  Toxicity in macrophage assay (in words): nontoxic

## Nc1ccn([C@H]2CC[C@@H](CO)O2)c(=O)n1 [ddc, dideoxycytidine, reference compound]
Ba-L strain of HIV-1
  TI (TC50/IC50): >2,500
Ba-L strain of HIV-1; [4]
  IC50: 0.07 µM
Ba-L strain of HIV-1; [6]
  IC50: 0.04 µM
